From patent US6548235B2, “Stabilized solution of an alkali metal or alkaline earth metal salt of p-phenylenediamine color developer and method of making same” (Eastman Chemical Company, priority 2000, dated 2003) come the findings set out here.

Common to all, as to assay type: physicochemical
Data set [1] in a line: Product solution of CD-3 free base sodium salt after solvent exchange, observed at ambient temperature. Particulars: Example 53, nominally 23% in water after distilling 2-propanol, contains DEHA. As for the experimental part: A 425 gram autoclave solution containing 23.2% CD-3 free base, 2.5% DEHA in 268 g of 2-propanol, and 47 g of water was added to a two-liter flask equipped with an overhead agitator, temperature probe, addition funnel, condenser with take-off provision, and nitrogen blanketing. Water (275 g) and 30 g of 50% aqueous sodium hydroxide were added to the flask. The mixture was distilled at a vapor temperature of approximately 85° C.

A short description of data set [2]: Saturation solubility of CD-3 free base in solvents and solvent/water mixtures. Particulars: 3% DEHA, ambient temperature. As for the experimental part:
The solubility of the free base form of color developers CD-3 in a number of potential solvents was determined. Representative solvents were selected from each of the different classes of solvents: alcohols, glycols and glycol ethers. A small quantity of a representative preservative, 3% of N,N-diethylhydroxylamine (DEHA), was added. Excess dry color developer free base (CD-3) was added to each solvent and saturation was achieved by mixing for several hours at room temperature. […] In Table I, Solvent:Water refers to the weight:weight, solvent:water ratio when water was included, CD Free Base Concentration refers to the weight percent saturation concentration of CD-3, and PEG 200 and PEG 300 refers to poly(ethylene glycol) having an average molecular weight of 200 or 300.

Data set [3] can be described thus: Saturation solubility of CD-3 free base in solvent/water/sodium hydroxide systems. The settings on record: 3 weight percent DEHA, ambient temperature, HPLC. As for the experimental part: Because CD-3 free base can be converted to its metal salt by treatment with a sufficiently strong base such as an alkali metal or alkaline earth metal hydroxide, carbonate, alkoxide or hydride, the solubility of CD-3 free base in solvent systems in combination with water and base was measured to determine if enhanced solubility could be obtained. The saturation concentration in weight percent again was determined by the techniques of both HPLC and NMR. Selected solvents were combined with water and an alkali metal hydroxide (sodium hydroxide), with each sample containing a small quantity (3 weight percent) of a representative preservative (DEHA). Excess, dry CD-3 free base was added to each combination solvent system and saturation was achieved by mixing for several hours at ambient temperature.

Molecules are shown by their SMILES.

For the compound `CCN(CC[N-]S(C)(=O)=O)c1ccc(N)c(C)c1.[Na+]` [CD-3 free base sodium salt], the “Solution behaviour of final product solution” value in data set [1] is “remained in solution”.

On to `CCN(CCNS(C)(=O)=O)c1ccc(N)c(C)c1` [CD-3 free base, 4-amino-3-methyl-N-ethyl-N-(2-methanesulfonamidoethyl)aniline], for which the “CD Free Base Conc. (saturation concentration)” value was found to be 8.6 weight percent in data set [2] (Example 1, 2-Isopropoxyethanol); 3.3 weight percent in data set [2] (Example 2, 2-Methyl-1,3-Propanediol); 9.3 weight percent in data set [2] (Example 3, 3-Methoxy-1-Butanol); 16.9 weight percent in data set [2] (Example 4, PEG-200); 16.7 weight percent in data set [2] (Example 5, PEG-300); 15.2 weight percent in data set [2] (Example 6, Diethylene Glycol). In addition, the “CD Free Base Conc. (saturation concentration)” value was determined as 23.6 weight percent in data set [2] (Example 7, Methanol); 18.9 weight percent in data set [2] (Example 8, Methanol/Water 90:10 w:w); 6.8 weight percent in data set [2] (Example 9, Methanol/Water 50:50 w:w); 0.7 weight percent in data set [2] (Example 10, Methanol/Water 10:90 w:w); 5.4 weight percent in data set [2] (Example 11, Ethanol); 9.7 weight percent in data set [2] (Example 12, Ethanol/Water 90:10 w:w). The “CD Free Base Conc. (saturation concentration)” value in data set [2] (Example 13, Ethanol/Water 50:50 w:w) turned out to be 9.0 weight percent; in data set [2] (Example 14, Ethanol/Water 10:90 w:w), 0.6 weight percent; in data set [2] (Example 15, 2-Propanol) it was 1.8 weight percent; in data set [2] (Example 16, 2-Propanol/Water 90:10 w:w) it was 7.8 weight percent; in data set [2] (Example 17, 2-Propanol/Water 50:50 w:w), 9.2 weight percent; in data set [2] (Example 18, 2-Propanol/Water 10:90 w:w), 0.8 weight percent. Moreover, the “CD Free Base Conc. (saturation concentration)” value is listed as 22.9 weight percent in data set [3] (Example 19, 2-Isopropoxyethanol/Water/NaOH 63:34:3 w); 19.0 weight percent in data set [3] (Example 20, 2-Methyl-1,3-Propanediol/Water/NaOH 63:34:3 w); 21.3 weight percent in data set [3] (Example 21, 3-Methoxy-1-Butanol/Water/NaOH 63:34:3 w); 19.5 weight percent in data set [3] (Example 22, PEG-200/Water/NaOH 63:34:3 w); 19.2 weight percent in data set [3] (Example 23, PEG-300/Water/NaOH 63:34:3 w); 15.1 weight percent in data set [3] (Example 24, Diethylene Glycol/Water/NaOH 63:34:3 w). Besides, the “CD Free Base Conc. (saturation concentration)” value in data set [3] (Example 26, 2-Methyl-1,3-Propanediol/Water/NaOH 61:33:6 w) turned out to be 23.2 weight percent; in data set [3] (Example 27, 3-Methoxy-1-Butanol/Water/NaOH 61:33:6 w), 26.4 weight percent; in data set [3] (Example 28, PEG-200/Water/NaOH 61:33:6 w), 23.5 weight percent; in data set [3] (Example 29, PEG-300/Water/NaOH 61:33:6 w) it was 20.8 weight percent; in data set [3] (Example 30, Diethylene Glycol/Water/NaOH 61:33:6 w) it was 21.9 weight percent; in data set [3] (Example 31, Water/NaOH 93.5:6.5 w), 25.1 weight percent. The “CD Free Base Conc. (saturation concentration)” value in data set [3] (Example printed 24 (second), 2-Isopropoxyethanol/Water/NaOH 61:33:6 w) is listed as 21.9 weight percent.
